Data published in patent publication US20250041330A1, “METHOD OF TREATING OBESITY BY SELECTIVE TARGETING OF VISCERAL ADIPOSITY USING POLYCATION NANOMEDICINE” (THE TRUSTEES OF COLUMBIA UNIVERSITY IN THE CITY OF NEW YORK, priority 2022, published 2025).

Test system: 3T3-L1 cells
Assay: 3T3-L1 adipocyte differentiation (lipid staining, qPCR)
Format: cell-based, mouse
Conditions: NMN 20 mM with P-G3 10 μg/ml, day 0-3 of differentiation
Procedure: 3T3-L1 (ATCC CL-173) and C3H10T1/2 (CCL-226) cells were purchased from ATCC and cultured in high glucose DMEM supplemented with 10% calf serum (CS, Gemini Bio-Products 100-506) or FBS (heat-inactivated, Corning 35-011-CV), and 1× Pen Strep (Thermo Fisher). Cells were differentiated in the standard adipogenic cocktail after reaching confluence for 2 days. The cocktail contains DMEM, 10% FBS, 1 μM dexamethasone (DEX), 10 μg/ml insulin and 0.5 mM 3-isobutyl-1-methylxanthine (IBMX). 5 μM Rosiglitazone was used in the first two days to facilitate C3H10T1/2 cells' differentiation. After induction for two days, cells were maintained in a complete medium containing 2.5 μg/ml insulin until fully differentiated. P-G3 polymers or NPs (10 μg/ml) were added at indicated times, and cells were harvested during differentiation for analyses. Lipid droplets were visualized using Oil Red O staining or BODIPY staining. 3T3-L1 cells were treated with rapamycin (100 nM) from Day 4 to Day 6. […]
Total RNA from tissues or cells was extracted by using the TriZol reagent (Thermo Fisher) in combination with an RNA isolation kit from Macherey-Nagel. […] Bio-Rad CFX96 Real-Time PCR system was used to perform quantitative real-time PCR (qPCR) with goTaq qPCR Master Mix (Promega). The relative gene expression was calculated by using the ΔΔCt method with Cyclophilin A or Rpl23 as the reference gene. […]

For `NC(=O)c1ccc[n+]([C@@H]2O[C@H](COP(=O)([O-])O)[C@@H](O)[C@H]2O)c1` [NMN, nicotinamide mononucleotide], the “effect on P-G3's pro-adipogenic effect” value was “counteracted the pro-adipogenic effect of P-G3”.
